According to patent US5439915A, “Pyrido[3,4-B]indole carboxamide derivatives as serotonergic agents” (American Home Products Corporation, priority 1994, dated 1995):
pIC50: −log10 of the molar value.

Target: T1, 5-HT1A serotonin receptor (Rattus norvegicus, UniProt P19327)
T1 construct: following the procedure of Hall et al., J. Neurochem; 44 1685 (1985); from tissue
T1 sequence (P19327 1-422): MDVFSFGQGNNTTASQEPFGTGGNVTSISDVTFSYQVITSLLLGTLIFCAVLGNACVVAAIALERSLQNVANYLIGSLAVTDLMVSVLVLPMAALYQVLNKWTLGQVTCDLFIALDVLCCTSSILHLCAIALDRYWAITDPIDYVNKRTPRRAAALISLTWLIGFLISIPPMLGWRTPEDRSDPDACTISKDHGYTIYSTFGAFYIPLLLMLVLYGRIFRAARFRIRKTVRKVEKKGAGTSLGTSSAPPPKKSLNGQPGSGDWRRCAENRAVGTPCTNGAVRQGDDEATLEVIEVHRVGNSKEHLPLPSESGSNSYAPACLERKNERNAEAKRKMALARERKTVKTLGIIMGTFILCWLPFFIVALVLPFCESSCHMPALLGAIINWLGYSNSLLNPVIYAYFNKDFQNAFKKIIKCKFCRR
Assay: displacement of [^3 H] 8-OHDPAT (dipropylaminotetralin) from the 5-HT1A serotonin receptor (Hall et al.)
Conditions: read-out: 5-HT1A Binding (IC50)
Description: High affinity for the serotonin 5-HT1A receptor for the compounds of this invention was established by testing them in accordance with the standard pharmacological test procedure in which the compound's ability to displace [^3 H] 8-OHDPAT (dipropylaminotetralin) from the 5-HT1A serotonin receptor was determined following the procedure of Hall et al., J. Neurochem. 44 1685 (1985).

Row | Compound | pIC50
1 | C[C@H](CN1CCc2c([nH]c3ccccc23)C1)N(C(=O)C1CCCCC1)c1ccccn1 [Example 1] | 7.46
2 | C[C@H](CN1CCc2c([nH]c3ccccc23)C1)N(C(=O)C12CC3CC(CC(C3)C1)C2)c1ccccn1 [Example 2] | 7.49
3 | C[C@H](CN1CCc2c(n(C)c3ccccc23)C1)N(C(=O)C1CCCCC1)c1ccccn1 [Example 3] | 7.11
